Measurements from patent publication US10251862B2, “Cosmetic composition containing hydroxy pyranone derivative compound for promoting differentiation of adipocytes” (AMOREPACIFIC CORPORATION, priority 2014, dated 2019).

Key:
[1] = test system: Human adipose-derived mesenchymal stem cells (hAT-MSCs); assay: Inducement of differentiation of adipose-derived mesenchymal stem cells into adipocytes (Oil Red O staining); assay type: cell-based; settings: day 14
Excerpt: Human adipose-derived mesenchymal stem cells (hAT-MSCs) were purchased form Lonza, Inc. (Walkersville, Md., USA) and cultured according to the instructions of Lonza, Inc. The adipose-derived mesenchymal stem cells were induced to differentiate into adipocytes according to the instructions of Lonza, Inc. except that troglitazone (TRO) was used instead of indomethacin. Specifically, the mesenchymal stem cells were differentiated into adipocytes by adding to a culture of the mesenchymal stem cells […] insulin, 1 µM dexamethasone (DEXA), 0.5 mM isobutylmethylxanthine (IBMX) and […] TRO. To a test group, the compound of Example 1 was added to the medium at a concentration of 30 μM when inducing the differentiation into adipocytes. A positive control group was treated with 30 μM glibenclamide together with IDX. On day 14 after the adipose-derived mesenchymal stem cells began to differentiate into adipocytes, the cells were washed with 10 mL of phosphate-buffered saline (PBS) and then fixed for 10 minutes using a 10% formalin/PBS solution (0.2 mL/cm^2). The fixed cells were washed once with a 60% isopropanol solution (0.5 mL/cm^2) and lipid bodies in the adipocytes were stained for 10 minutes with Oil Red O dissolved in 60% isopropanol (0.2 mL/cm^2). Then, after staining again with hematoxylin to visualize nuclei, the cells were observed under a microscope.

Adiponectin = assay: Measurement of expression level of adiponectin in human adipose-derived mesenchymal stem cells (ELISA); assay type: cell-based; settings: for effect of increasing adiponectin expression (in words): 60 μM with IDX, day 14, Table 1; for Adiponectin (pg/mL, avg ± S.D.): secreted into culture medium, day 14 of differentiation, together with IDX, sample 60 μM
Procedure: Adiponectin is a representative protein hormone secreted in adipocytes. It is reported that the expression of adiponectin is increased with the differentiation into adipocytes. Accordingly, the amount of adiponectin secreted into a cell culture medium was measured as a marker of promotion of adipocyte differentiation. In order to measure the secreted amount of adiponectin, human adipose-derived mesenchymal stem cells purchased form Lonza, Inc. were gathered on day 14 after they began to differentiate into adipocytes and the amount of adiponectin was quantified using an adiponectin ELISA kit (R&D Systems, Cat. No. DY1065) as follows (Data were normalized to that of the control group). Specifically, after reacting with a capture antibody on a 96-well plate and washing with a washing buffer, the cells were treated with a sample at a concentration of 60 μM and incubated at room temperature for 2 hours. Subsequently, the cells were incubated with a detection antibody, HRP, a substrate solution and a stop solution for the time specified in the protocol, while washing 3 times between each step. After the final incubation, absorbance was measured at 450 nm using a spectrophotometer.

O=C(/C=C/c1ccc2c(c1)OCO2)OCc1cc(=O)c(O)co1 [Example 1, (2E)-(5-hydroxy-4-oxo-4H-pyran-2-yl)methyl 3-(benzo[d][1,3]dioxo-6-yl)acrylate]
differentiation into adipocytes as compared to treatment with IDX only ([1]; 30 μM added to medium when inducing differentiation, Oil Red O staining, microscope (FIG. 1)): increased differentiation into adipocytes
number of the stained cells compared with glibenclamide as positive control ([1]; 30 μM, Oil Red O staining (FIG. 1)): slightly less
effect of increasing adiponectin expression (in words) (Adiponectin): increased the expression of adiponectin
Adiponectin (pg/mL, avg ± S.D.) (Adiponectin): 1435 ± 113 pg/mL

O=C(/C=C/c1ccc2c(c1)OCCO2)OCc1cc(=O)c(O)co1 [Example 2, (2E)-(5-hydroxy-4-oxo-4H-pyran-2-yl)methyl 3-(2,3-dihydroxybenzo[b][1,4]dioxo-7-yl)acrylate]
effect of increasing adiponectin expression (in words) (Adiponectin): increased the expression of adiponectin
Adiponectin (pg/mL, avg ± S.D.) (Adiponectin): 1300 ± 140 pg/mL

COc1ccc(Cl)cc1C(=O)NCCc1ccc(S(=O)(=O)NC(=O)NC2CCCCC2)cc1 [glibenclamide, reference compound]
Adiponectin (pg/mL, avg ± S.D.) (Adiponectin): 1832 ± 110 pg/mL

O=c1cc(CO)occ1O [kojic acid, reference compound]
effect of increasing adiponectin expression (in words) (Adiponectin): did not show an effect of increasing adiponectin expression
Adiponectin (pg/mL, avg ± S.D.) (Adiponectin): 312 ± 103 pg/mL
